Values quoted from earlier work in paper PMC7904743, “WIDOCK: a reactive docking protocol for virtual screening of covalent inhibitors” (Journal of Computer-Aided Molecular Design, 2021).
Where two headings read alike, the source gives them in different places.

Tests used:
OTUB2 = conditions: experimental actives if % labeling higher than 50%; cited from earlier work
NUDT7 = conditions: protein labeling at 200 μM; experimental actives if % labeling higher than 50%; cited from earlier work
[1] = thiol reactivity, cited from earlier work
[2] = natural log of average rate constant k
[3] = natural logarithm of average rate constant

| SMILES | OTUB2 % labeling (OTUB2) [%] | NUDT7 % labeling (NUDT7) [%] | ln(avg k) [1, 2] | ln(avg k) [1, 3] |
| --- | --- | --- | --- | --- |
| Cc1ccc(NC(=O)CCl)cc1I [PCM-0102577, Cc1ccc(NC(=O)CCl)cc1I] | 80 | 34 | -15.945 | -15.945 |
| O=C(CCl)NCc1ccc2c(c1)OCO2 [PCM-0102578, O=C(CCl)NCc1ccc2c(c1)OCO2] | 16 | 0 | -16.736 | -16.736 |
| Cc1cccc(N(C(=O)CCl)C2C=CS(=O)(=O)C2)c1 (stereo not shown) [PCM-0102579, Cc1cccc(N(C(=O)CCl)C2C=CS(=O)(=O)C2)c1] | 0 | 40 | -15.240 | -15.240 |
| N#Cc1c(NC(=O)CCl)sc2c1CCCC2 [PCM-0102580, N#Cc1c(NC(=O)CCl)sc2c1CCCC2] | 10 | 72 | -16.105 | -16.105 |
| O=C(CCl)Nc1ccc(N2CCOCC2)cc1 [PCM-0102582, O=C(CCl)Nc1ccc(N2CCOCC2)cc1] | 54 | 0 | -15.715 | -15.715 |
| NC(=O)C1CCN(C(=O)CCl)CC1 [PCM-0102584, NC(=O)C1CCN(C(=O)CCl)CC1] | 0 | 0 | -15.701 | -15.701 |
| O=C(CCl)Nc1cc2c(cc1Cl)OCCO2 [PCM-0102585, O=C(CCl)Nc1cc2c(cc1Cl)OCCO2] | 0 | 12 | -16.394 | -16.394 |
| Cc1n[nH]c(C)c1NC(=O)CCl [PCM-0102588, Cc1n[nH]c(C)c1NC(=O)CCl] | 0 | 0 | -16.991 | -16.991 |
| COC(=O)c1ccccc1N(C)C(=O)CCl [PCM-0102589, COC(=O)c1ccccc1N(C)C(=O)CCl] | 0 | 15 | -16.323 | -16.323 |
| O=C(CCl)Nc1cc(C(=O)O)ccc1Cl [PCM-0102590, O=C(CCl)Nc1cc(C(=O)O)ccc1Cl] | 0 | 0 | -17.114 | -17.114 |
| CN(Cc1ccccc1Br)C(=O)CCl [PCM-0102592, CN(Cc1ccccc1Br)C(=O)CCl] | 12 | 14 | -16.295 | -16.295 |
| CCN(C(=O)CCl)C1CC1 [PCM-0102594, CCN(C(=O)CCl)C1CC1] | 0 | 0 | -17.070 | -17.070 |
| O=C(CCl)NCC1CCOC1 (stereo not shown) [PCM-0102596, O=C(CCl)NCC1CCOC1] | 13 | 0 | -16.248 | -16.248 |
| CC(NC(=O)CCl)C(=O)N1CCCCC1 (stereo not shown) [PCM-0102598, CC(NC(=O)CCl)C(=O)N1CCCCC1] | 0 | 0 | -16.794 | -16.794 |
| O=C(CCl)Nc1ccc(N2CCCCC2)cc1 [PCM-0102612, O=C(CCl)Nc1ccc(N2CCCCC2)cc1] | 37 | 0 | -16.206 | -16.206 |
| O=C(CCl)NC(=O)Nc1ccc2c(c1)OCCO2 [PCM-0102614, O=C(CCl)NC(=O)Nc1ccc2c(c1)OCCO2] | 27 | 23 | -16.380 | -16.380 |
| O=C(CCl)N1CCOC(c2ccc(F)cc2)C1 (stereo not shown) [PCM-0102615, O=C(CCl)N1CCOC(c2ccc(F)cc2)C1] | 0 | 0 | -15.513 | -15.513 |
| CC1CCCC(C)N1C(=O)CCl (stereo not shown) [PCM-0102616, CC1CCCC(C)N1C(=O)CCl] | 0 | 0 | -15.945 | -15.945 |
| CCc1cccc(C)c1NC(=O)CCl [PCM-0102618, CCc1cccc(C)c1NC(=O)CCl] | 0 | 11 | -17.017 | -17.017 |
| O=C(CCl)NC1CCN(C(=O)c2ccco2)CC1 [PCM-0102619, O=C(CCl)NC1CCN(C(=O)c2ccco2)CC1] | 10 | 0 | -16.352 | -16.352 |
| CC(C)(C)c1ccc(NC(=O)CCl)cc1 [PCM-0102622, CC(C)(C)c1ccc(NC(=O)CCl)cc1] | 32 | 0 | -15.995 | -15.995 |
| Cc1ccc(NC(=O)NC(=O)CCl)cc1 [PCM-0102623, Cc1ccc(NC(=O)NC(=O)CCl)cc1] | 0 | 11 | -16.273 | -16.273 |

| SMILES | OTUB2 % labeling (OTUB2) [%] | NUDT7 % labeling (NUDT7) [%] | ln(avg k) [1, 2] | ln(avg k) [1, 3] |
| --- | --- | --- | --- | --- |
| Cc1ccc(C(=O)O)cc1NC(=O)CCl [PCM-0102624, Cc1ccc(C(=O)O)cc1NC(=O)CCl] | 0 | 0 | -17.065 | -17.065 |
| O=C(CCl)N1CCCc2cc(S(=O)(=O)N3CCCC3)ccc21 [PCM-0102625, O=C(CCl)N1CCCc2cc(S(=O)(=O)N3CCCC3)ccc21] | 0 | 0 | -15.992 | -15.992 |
| CC(C)C(C)(C#N)NC(=O)CCl (stereo not shown) [PCM-0102626, CC(C)C(C)(C#N)NC(=O)CCl] | 0 | 0 | -15.951 | -15.951 |
| Cc1ccc(S(=O)(=O)N2CCN(C(=O)CCl)CC2)c(C)c1 [PCM-0102628, Cc1ccc(S(=O)(=O)N2CCN(C(=O)CCl)CC2)c(C)c1] | 0 | 0 | -15.546 | -15.546 |
| Cc1nc(CN2CCN(C(=O)CCl)CC2)cs1 [PCM-0102630, Cc1nc(CN2CCN(C(=O)CCl)CC2)cs1] | 0 | 0 | -15.690 | -15.690 |
| CN(Cc1cccs1)C(=O)CCl [PCM-0102636, CN(Cc1cccs1)C(=O)CCl] | 0 | 17 | -15.483 | -15.483 |
| Cc1cc(N2CCN(C(=O)CCl)CC2)nc(C(C)C)n1 [PCM-0102638, Cc1cc(N2CCN(C(=O)CCl)CC2)nc(C(C)C)n1] | 0 | 0 | -16.816 | -16.816 |
| COc1ccc(NC(=O)CCl)cc1Cl [PCM-0102652, COc1ccc(NC(=O)CCl)cc1Cl] | 24 | 12 | -15.680 | -15.680 |
| O=C(CCl)Nc1cccnc1 [PCM-0102653, O=C(CCl)Nc1cccnc1] | 0 | 0 | -16.863 | -16.863 |
| CCNC(=O)NC(=O)CCl [PCM-0102654, CCNC(=O)NC(=O)CCl] | 0 | 0 | -16.588 | -16.588 |
| O=C(CCl)N1CCC(C(=O)N2CCCC2)CC1 [PCM-0102655, O=C(CCl)N1CCC(C(=O)N2CCCC2)CC1] | 0 | 0 | -15.795 | -15.795 |
| CCOC(=O)C1CCN(C(=O)CCl)CC1 [PCM-0102656, CCOC(=O)C1CCN(C(=O)CCl)CC1] | 0 | 0 | -15.523 | -15.523 |
| O=C(CCl)Nc1ccccc1 [PCM-0102658, O=C(CCl)Nc1ccccc1] | 0 | 0 | -16.281 | -16.281 |
| O=C(CCl)N1N=C(c2ccco2)CC1c1ccsc1 (stereo not shown) [PCM-0102659, O=C(CCl)N1N=C(c2ccco2)CC1c1ccsc1] | 0 | 39 | -14.828 | -14.828 |
| Cc1ccc(CNC(=O)CCl)cc1 [PCM-0102660, Cc1ccc(CNC(=O)CCl)cc1] | 63 | 0 | -16.571 | -16.571 |
| O=C(CCl)Nc1ccc2c(c1)CCC2 [PCM-0102662, O=C(CCl)Nc1ccc2c(c1)CCC2] | 14 | 12 | -16.202 | -16.202 |
| CC1CCCC(NC(=O)CCl)C1C (stereo not shown) [PCM-0102663, CC1CCCC(NC(=O)CCl)C1C] | 29 | 0 | -16.862 | -16.862 |
| CC(C#N)(NC(=O)CCl)C1CC1 (stereo not shown) [PCM-0102664, CC(C#N)(NC(=O)CCl)C1CC1] | 0 | 0 | -16.170 | -16.170 |
| Cc1cc(NC(=O)CCl)n(-c2ccc(F)cc2)n1 [PCM-0102665, Cc1cc(NC(=O)CCl)n(-c2ccc(F)cc2)n1] | 53 | 0 | -15.905 | -15.905 |
| CC1CCC2(CC1)NC(=O)N(NC(=O)CCl)C2=O (stereo not shown) [PCM-0102666, CC1CCC2(CC1)NC(=O)N(NC(=O)CCl)C2=O] | 0 | 0 | -17.364 | -17.364 |
| CN(C(=O)CCl)c1ccc([N+](=O)[O-])cc1 [PCM-0102669, CN(C(=O)CCl)c1ccc([N+](=O)[O-])cc1] | 0 | 14 | -15.479 | -15.479 |
